The source made the active and inactive calls. The calls are words filed in the database; no cut-off is given here.
Tests used:
[1] = target: T1, von Hippel-Lindau disease tumor suppressor/Histone-lysine N-methyltransferase, H3 lysine-79 specific (Homo sapiens, UniProt Q8TEK3+P40337); test: PROTAC activity at VHL/DOTIL in mixed-lineage leukemia rearranged (MLL-r) human THP-1 cells assessed as induction of DOT1L degradation by measuring fold change in DOTIL protein level at 0.3 uM incubated for 24 hrs by western blot analysis relative to control; format: cell-based
Target sequence in this assay (P40337 whole entry, looked up): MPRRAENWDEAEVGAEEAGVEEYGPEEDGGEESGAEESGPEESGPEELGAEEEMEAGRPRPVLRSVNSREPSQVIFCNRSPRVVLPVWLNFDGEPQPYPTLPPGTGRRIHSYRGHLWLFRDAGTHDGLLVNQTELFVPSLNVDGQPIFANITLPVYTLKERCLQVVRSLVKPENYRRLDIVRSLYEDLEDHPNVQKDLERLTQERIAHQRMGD
Target sequence in this assay (Q8TEK3 whole entry, looked up): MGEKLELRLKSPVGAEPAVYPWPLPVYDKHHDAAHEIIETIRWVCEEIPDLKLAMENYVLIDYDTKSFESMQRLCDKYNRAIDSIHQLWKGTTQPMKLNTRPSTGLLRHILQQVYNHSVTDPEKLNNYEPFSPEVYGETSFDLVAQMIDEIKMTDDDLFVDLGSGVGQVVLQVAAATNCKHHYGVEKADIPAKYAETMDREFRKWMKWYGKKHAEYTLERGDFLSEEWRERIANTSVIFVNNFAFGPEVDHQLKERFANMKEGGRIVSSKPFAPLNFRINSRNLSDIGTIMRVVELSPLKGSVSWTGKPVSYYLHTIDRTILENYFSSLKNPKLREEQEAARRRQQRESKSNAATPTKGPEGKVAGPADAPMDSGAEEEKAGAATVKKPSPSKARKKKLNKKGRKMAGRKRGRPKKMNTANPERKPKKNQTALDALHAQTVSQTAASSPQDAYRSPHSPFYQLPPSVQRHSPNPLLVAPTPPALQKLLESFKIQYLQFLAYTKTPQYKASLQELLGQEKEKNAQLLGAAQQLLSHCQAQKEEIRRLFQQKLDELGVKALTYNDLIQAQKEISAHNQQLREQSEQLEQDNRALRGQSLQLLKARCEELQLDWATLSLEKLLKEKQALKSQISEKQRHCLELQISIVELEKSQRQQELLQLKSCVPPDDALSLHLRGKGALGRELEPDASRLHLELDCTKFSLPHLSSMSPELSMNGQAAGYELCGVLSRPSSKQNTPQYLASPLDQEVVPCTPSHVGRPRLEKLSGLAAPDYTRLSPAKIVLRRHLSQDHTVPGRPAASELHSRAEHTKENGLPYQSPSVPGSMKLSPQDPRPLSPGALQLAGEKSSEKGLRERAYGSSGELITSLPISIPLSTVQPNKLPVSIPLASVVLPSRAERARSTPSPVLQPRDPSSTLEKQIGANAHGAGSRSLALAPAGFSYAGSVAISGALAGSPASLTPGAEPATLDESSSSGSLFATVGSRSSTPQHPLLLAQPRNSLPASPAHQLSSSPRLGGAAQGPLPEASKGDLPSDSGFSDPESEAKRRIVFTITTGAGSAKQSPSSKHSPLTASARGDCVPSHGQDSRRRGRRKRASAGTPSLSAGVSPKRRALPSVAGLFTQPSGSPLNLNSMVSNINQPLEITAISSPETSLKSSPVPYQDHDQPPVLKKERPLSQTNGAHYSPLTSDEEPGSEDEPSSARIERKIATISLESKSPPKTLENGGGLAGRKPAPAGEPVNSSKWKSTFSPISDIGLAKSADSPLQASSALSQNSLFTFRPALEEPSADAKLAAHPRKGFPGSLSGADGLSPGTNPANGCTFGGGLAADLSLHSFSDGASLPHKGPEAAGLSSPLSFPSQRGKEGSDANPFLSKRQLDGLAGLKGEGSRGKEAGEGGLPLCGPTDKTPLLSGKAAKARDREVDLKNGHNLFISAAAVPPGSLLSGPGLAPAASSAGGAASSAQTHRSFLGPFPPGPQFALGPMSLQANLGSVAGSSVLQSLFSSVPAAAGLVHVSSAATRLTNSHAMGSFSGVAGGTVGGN

[2] = target: T1, von Hippel-Lindau disease tumor suppressor/Histone-lysine N-methyltransferase, H3 lysine-79 specific; test: PROTAC activity at VHL/DOTIL in mixed-lineage leukemia rearranged (MLL-r) human THP-1 cells assessed as induction of DOT1L degradation by measuring reduction in DOTIL protein level at 0.3 uM incubated for 24 hrs by western blot analysis relative to control; format: cell-based; design: scale not given: the % may be the effect or the level left
Target sequence in this assay (P40337 whole entry, looked up): as the sequence (P40337 whole entry, looked up) above
Target sequence in this assay (Q8TEK3 whole entry, looked up): as the sequence (Q8TEK3 whole entry, looked up) above

[3] = target: T1, von Hippel-Lindau disease tumor suppressor/Histone-lysine N-methyltransferase, H3 lysine-79 specific; test: PROTAC activity at VHL/DOTIL in mixed-lineage leukemia rearranged (MLL-r) human THP-1 cells assessed as induction of DOT1L degradation by measuring reduction in DOTIL protein level at 3 uM incubated for 24 hrs by western blot analysis relative to control; format: cell-based; design: scale not given: the % may be the effect or the level left
Target sequence in this assay (P40337 whole entry, looked up): as the sequence (P40337 whole entry, looked up) above
Target sequence in this assay (Q8TEK3 whole entry, looked up): as the sequence (Q8TEK3 whole entry, looked up) above

[4] = target: T1, von Hippel-Lindau disease tumor suppressor/Histone-lysine N-methyltransferase, H3 lysine-79 specific; test: PROTAC activity at VHL/DOT1L in mixed-lineage leukemia rearranged (MLL-r) human MV4-11 cells assessed as induction of DOT1L degradation incubated for 24 hrs by western blot analysis; format: cell-based
[5] = target: T1, von Hippel-Lindau disease tumor suppressor/Histone-lysine N-methyltransferase, H3 lysine-79 specific; test: PROTAC activity at VHL/DOT1L in mixed-lineage leukemia rearranged (MLL-r) human THP-1 cells assessed as induction of DOTIL degradation by measuring fold change in DOT1L protein level at 3 uM incubated for 1 hr by western blot analysis relative to control; format: cell-based
Target sequence in this assay (P40337 whole entry, looked up): as the sequence (P40337 whole entry, looked up) above
Target sequence in this assay (Q8TEK3 whole entry, looked up): as the sequence (Q8TEK3 whole entry, looked up) above

[6] = target: T1, von Hippel-Lindau disease tumor suppressor/Histone-lysine N-methyltransferase, H3 lysine-79 specific; test: PROTAC activity at VHL/DOT1L in mixed-lineage leukemia rearranged (MLL-r) human THP-1 cells assessed as induction of DOTIL degradation by measuring fold change in DOT1L protein level at 3 uM incubated for 4 hrs by western blot analysis relative to control; format: cell-based
Target sequence in this assay (P40337 whole entry, looked up): as the sequence (P40337 whole entry, looked up) above
Target sequence in this assay (Q8TEK3 whole entry, looked up): as the sequence (Q8TEK3 whole entry, looked up) above

[7] = target: T1, von Hippel-Lindau disease tumor suppressor/Histone-lysine N-methyltransferase, H3 lysine-79 specific; test: PROTAC activity at VHL/DOT1L in mixed-lineage leukemia rearranged (MLL-r) human THP-1 cells assessed as induction of DOTIL degradation by measuring fold change in DOT1L protein level at 3 uM incubated for 8 hrs by western blot analysis relative to control; format: cell-based
Target sequence in this assay (P40337 whole entry, looked up): as the sequence (P40337 whole entry, looked up) above
Target sequence in this assay (Q8TEK3 whole entry, looked up): as the sequence (Q8TEK3 whole entry, looked up) above

[8] = target: T1, von Hippel-Lindau disease tumor suppressor/Histone-lysine N-methyltransferase, H3 lysine-79 specific; test: PROTAC activity at VHL/DOT1L in mixed-lineage leukemia rearranged (MLL-r) human THP-1 cells assessed as induction of DOTIL degradation by measuring fold change in H3K79Me2 level at 3 uM incubated for 24 hrs by western blot analysis relative to control; format: cell-based
[9] = target: T1, von Hippel-Lindau disease tumor suppressor/Histone-lysine N-methyltransferase, H3 lysine-79 specific; test: PROTAC activity at VHL/DOT1L in mixed-lineage leukemia rearranged (MLL-r) human MV4-11 cells assessed as induction of DOTIL degradation by measuring fold change in H3K79Me2 level at 3 uM incubated for 1 hr by western blot analysis relative to control; format: cell-based
[10] = target: T1, von Hippel-Lindau disease tumor suppressor/Histone-lysine N-methyltransferase, H3 lysine-79 specific; test: PROTAC activity at VHL/DOT1L in mixed-lineage leukemia rearranged (MLL-r) human MV4-11 cells assessed as induction of DOTIL degradation by measuring fold change in H3K79Me2 level at 3 uM incubated for 24 hrs by western blot analysis relative to control; format: cell-based
MV4-11 [11] = test: Effect on DOTIL mRNA expression in mixed-lineage leukemia rearranged (MLL-r) human MV4-11 cells at 3 uM incubated for 24 hrs by RT-qPCR analysis; format: functional, cell-based
[12] = target: T1, von Hippel-Lindau disease tumor suppressor/Histone-lysine N-methyltransferase, H3 lysine-79 specific; test: PROTAC activity at VHL/DOT1L in mixed-lineage leukemia rearranged (MLL-r) human MOLM-13 cells assessed as induction of DOT1L degradation at 0.3 to 3 uM by western blot analysis; format: cell-based; settings: dose 0.3-3 µM
MOLM-13 = test: Effect on DOT1L mRNA expression in mixed-lineage leukemia rearranged (MLL-r) human MOLM-13 cells at 3 uM incubated for 24 hrs by RT-qPCR analysis; format: functional, cell-based
[13] = target: DNA (cytosine-5)-methyltransferase 1 (Homo sapiens) (UniProt P26358); test: Inhibition of human DNMT1 using poly(dI-dC) and SAM as substrate at 10 uM by radiometric Hotspot assay
[14] = target: Histone-lysine N-methyltransferase EZH2 (Homo sapiens) (UniProt Q15910); test: Inhibition of human EZH2 using core histone and SAM as substrate at 10 uM by radiometric Hotspot assay
[15] = target: Protein arginine N-methyltransferase 1 (Homo sapiens) (UniProt Q99873); test: Inhibition of human PRMT1 using histone H4 and SAM as substrate at 10 uM by radiometric Hotspot assay
MV4-11 [16] = test: Antiproliferative activity against mixed-lineage leukemia rearranged (MLL-r) human MV4-11 cells assessed as inhibition of cell growth incubated for 7 days by CCK-8 assay; format: functional; settings: MV4-11, 168 h, time 7 day
MCF-10A = test: Cytotoxicity against human MCF-10A cells assessed as inhibition of cell growth incubated for 7 days by CCK-8 assay; format: toxicity, cell-based; settings: 168 h, time 7 day

Chain of Protein arginine N-methyltransferase 1 (Homo sapiens) (Q99873 whole entry, looked up): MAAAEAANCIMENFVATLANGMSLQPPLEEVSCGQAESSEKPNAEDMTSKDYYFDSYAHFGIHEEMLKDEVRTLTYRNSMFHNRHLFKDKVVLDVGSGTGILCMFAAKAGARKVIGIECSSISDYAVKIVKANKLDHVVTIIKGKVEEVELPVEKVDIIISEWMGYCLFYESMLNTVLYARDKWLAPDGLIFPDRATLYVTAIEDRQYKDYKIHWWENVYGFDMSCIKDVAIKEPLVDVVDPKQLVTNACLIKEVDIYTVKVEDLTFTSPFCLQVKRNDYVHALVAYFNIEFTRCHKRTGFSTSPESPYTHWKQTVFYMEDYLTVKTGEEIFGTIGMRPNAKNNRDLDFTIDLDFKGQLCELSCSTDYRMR
Chain of Histone-lysine N-methyltransferase EZH2 (Homo sapiens) (Q15910 whole entry, looked up): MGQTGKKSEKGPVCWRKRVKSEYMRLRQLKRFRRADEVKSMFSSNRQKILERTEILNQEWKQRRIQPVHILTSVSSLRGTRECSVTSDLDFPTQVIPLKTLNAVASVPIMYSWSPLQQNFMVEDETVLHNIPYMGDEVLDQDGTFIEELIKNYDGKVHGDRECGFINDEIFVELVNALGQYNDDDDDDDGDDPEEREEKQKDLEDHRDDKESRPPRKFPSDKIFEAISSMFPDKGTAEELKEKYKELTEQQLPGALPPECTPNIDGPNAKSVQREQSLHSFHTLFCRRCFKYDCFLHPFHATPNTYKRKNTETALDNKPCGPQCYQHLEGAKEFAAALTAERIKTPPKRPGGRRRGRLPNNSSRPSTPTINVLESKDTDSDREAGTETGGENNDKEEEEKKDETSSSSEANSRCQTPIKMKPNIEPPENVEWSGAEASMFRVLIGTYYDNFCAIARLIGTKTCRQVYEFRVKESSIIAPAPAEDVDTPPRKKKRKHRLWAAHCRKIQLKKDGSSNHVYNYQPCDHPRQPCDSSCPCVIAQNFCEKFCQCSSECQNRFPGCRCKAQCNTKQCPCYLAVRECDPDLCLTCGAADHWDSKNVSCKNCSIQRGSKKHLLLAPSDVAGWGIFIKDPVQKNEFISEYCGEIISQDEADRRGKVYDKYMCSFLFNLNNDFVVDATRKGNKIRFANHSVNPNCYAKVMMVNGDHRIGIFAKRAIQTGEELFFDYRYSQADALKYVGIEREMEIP
Chain of DNA (cytosine-5)-methyltransferase 1 (Homo sapiens) (P26358 whole entry): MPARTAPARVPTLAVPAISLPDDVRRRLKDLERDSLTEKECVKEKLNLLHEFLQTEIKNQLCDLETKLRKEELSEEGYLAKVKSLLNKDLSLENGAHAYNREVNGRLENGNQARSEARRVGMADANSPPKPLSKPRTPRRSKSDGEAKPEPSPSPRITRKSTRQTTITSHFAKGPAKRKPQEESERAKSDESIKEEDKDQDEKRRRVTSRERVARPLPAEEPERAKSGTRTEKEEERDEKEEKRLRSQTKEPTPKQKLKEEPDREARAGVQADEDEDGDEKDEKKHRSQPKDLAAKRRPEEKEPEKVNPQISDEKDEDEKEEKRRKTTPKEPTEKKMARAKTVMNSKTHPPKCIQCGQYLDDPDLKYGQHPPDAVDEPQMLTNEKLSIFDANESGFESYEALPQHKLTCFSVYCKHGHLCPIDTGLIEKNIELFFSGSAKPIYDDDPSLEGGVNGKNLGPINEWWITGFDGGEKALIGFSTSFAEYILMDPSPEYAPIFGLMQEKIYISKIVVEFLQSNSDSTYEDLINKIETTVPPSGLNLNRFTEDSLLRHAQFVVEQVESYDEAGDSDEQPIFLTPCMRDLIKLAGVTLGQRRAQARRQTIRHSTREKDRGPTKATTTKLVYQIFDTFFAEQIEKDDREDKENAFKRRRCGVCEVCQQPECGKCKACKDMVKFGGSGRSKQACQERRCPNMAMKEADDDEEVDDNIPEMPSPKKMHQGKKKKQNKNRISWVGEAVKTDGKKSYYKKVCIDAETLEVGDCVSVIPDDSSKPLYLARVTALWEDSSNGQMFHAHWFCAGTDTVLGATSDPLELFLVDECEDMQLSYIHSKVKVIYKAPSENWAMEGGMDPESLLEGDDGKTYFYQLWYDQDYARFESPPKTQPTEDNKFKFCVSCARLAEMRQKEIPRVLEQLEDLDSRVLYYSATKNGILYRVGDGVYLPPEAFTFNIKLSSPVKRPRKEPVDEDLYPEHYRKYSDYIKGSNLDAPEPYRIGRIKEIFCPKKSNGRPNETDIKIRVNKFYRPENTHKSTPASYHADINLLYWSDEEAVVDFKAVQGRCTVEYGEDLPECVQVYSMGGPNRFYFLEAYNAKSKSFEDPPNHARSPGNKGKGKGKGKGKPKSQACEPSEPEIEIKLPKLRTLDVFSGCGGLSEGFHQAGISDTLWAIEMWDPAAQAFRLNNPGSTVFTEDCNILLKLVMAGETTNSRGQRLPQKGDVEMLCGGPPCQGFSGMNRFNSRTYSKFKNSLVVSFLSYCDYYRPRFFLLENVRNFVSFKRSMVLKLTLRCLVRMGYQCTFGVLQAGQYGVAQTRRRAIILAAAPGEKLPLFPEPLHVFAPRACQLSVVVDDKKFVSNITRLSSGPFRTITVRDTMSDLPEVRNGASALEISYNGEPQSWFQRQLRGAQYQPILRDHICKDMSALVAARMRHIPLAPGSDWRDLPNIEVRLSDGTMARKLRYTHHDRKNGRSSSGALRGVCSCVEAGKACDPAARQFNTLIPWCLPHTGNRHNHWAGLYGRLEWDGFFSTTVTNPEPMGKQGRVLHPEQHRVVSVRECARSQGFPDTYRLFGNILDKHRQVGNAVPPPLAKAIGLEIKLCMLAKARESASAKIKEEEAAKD

## Cc1ncsc1-c1ccc([C@H](CC(=O)NCCCCCCNC(=O)COc2nc(N)nc(Nc3cc(S(N)(=O)=O)ccc3N[C@@H](c3cccc4c3OC(F)(F)O4)c3ncccc3Cl)n2)NC(=O)[C@@H]2C[C@@H](O)CN2C(=O)[C@@H](NC(=O)C2(F)CC2)C(C)(C)C)cc1
[1]
  fold change (FC): 0.08
[2]
  Activity: 70%
[3]
  Activity: 77%
[4]
  Activity: Dose-dependent-effect
  DC50: 25 nM
[5]
  fold change (FC): 0.33
[6]
  fold change (FC): 0.4
[7]
  fold change (FC): 0.29
[8]
  fold change (FC): 0.29
[9]
  fold change (FC): 0.34
[10]
  fold change (FC): 0.17
MV4-11 [11]
  Activity: inactive
[12]
  Activity: Active
MOLM-13
  Activity: inactive
[13]
  inhibition: inactive
[14]
  inhibition: inactive
[15]
  inhibition: inactive
MV4-11 [16]
  GI50: 212 nM
MCF-10A
  Activity: Non-toxic

From ChEMBL document CHEMBL6182889, “Discovery of the first-in-class DOT1L PROTAC degrader” (Eur J Med Chem, 2025)
